Results from US4657898A, “N^6 -substituted adenosines and method of use” (Warner-Lambert Company, priority 1985, dated 1987).

Test: Mouse Activity and Screen Test Procedure (MAST): screen test failure (ST)
Settings: for MAST ST LAD: lowest dose at which an A rating is achieved, screen test, i.p., mouse; for Inhibition of screen test failure: percent of mice falling off the screen
Procedure: Nine unfasted Swiss-Webster male mice weighing 20-30 g are equally divided into three groups for each drug dose to be tested. That is, data for each dose level was generated by three separate groups of three mice each.
A minimum of three dose levels (10, 30, and 100 mg/kg) are tested for each drug. Treatments are administered intraperitoneally one hour prior to testing. All dosages are calculated as parent compound and given in volumes of 10 ml/kg. Compounds are dissolved or suspended in 0.2% Methocel. Control animals are injected with Methocel.
Testing: A two part testing procedure is started one hour postinjection. First, the screen test (ST) is performed (see Pharmac. Biochem. Behav. 6, 351-353, 1977). Briefly this test consists of placing mice on individual wire screens which are then rotated 180 degrees at the start of a 60 second observation period. The number of mice falling off the inverted screen is recorded.
Data: The data obtained from the screen test are expressed as percent of mice falling off the screen. Data derived from locomotor activity of drug treated mice are compared to the activity of vehicle treated animals and are expressed as percent inhibition of spontaneous locomotion. All percentages reported for inhibition of locomotion (LI) are based upon data accumulated for one hour. Both phases of testing are graded: A=60-100%; C=31-59%; and N=0-30%. An overall dose rating is obtained by the following criteria:
LAD refers to the lowest dose at which an A rating is achieved. […] The compounds are identified in the Examples.

| Structure (SMILES) | MAST ST LAD [mg/kg] | other results |
| --- | --- | --- |
| CC(=O)OC[C@H]1O[C@@H](n2cnc3c(NCC(c4ccccc4)c4ccccc4)nc(Cl)nc32)[C@H](OC(C)=O)[C@@H]1OC(C)=O [Example 27, 2',3',5'-Tri-O-acetyl-N^6-(2,2-diphenylethyl)-2-chloroadenosine] | > 100 |  |
| OC[C@H]1O[C@@H](n2cnc3c(NCC(c4ccccc4)c4ccc(Cl)cc4)ncnc32)[C@H](O)[C@@H]1O (stereo partly drawn) [Example 15, N^6-(2-(4-Chlorophenyl)-2-phenylethyl)adenosine] | > 100 |  |
| Nc1nc(NCC(c2ccccc2)c2ccc(Cl)cc2)c2ncn([C@@H]3O[C@H](CO)[C@@H](O)[C@H]3O)c2n1 (stereo partly drawn) [Example 16] | > 100 |  |
| CC(CNc1nc(N)nc2c1ncn2[C@@H]1O[C@H](CO)[C@@H](O)[C@H]1O)(c1ccccc1)c1ccccc1 [Example 21, N^6-(2,2-Diphenylpropyl)-2-aminoadenosine] | > 100 |  |
| Nc1nc(NCC(c2ccccc2)c2ccc(F)cc2)c2ncn([C@@H]3O[C@H](CO)[C@@H](O)[C@H]3O)c2n1 (stereo partly drawn) [Example 12, N^6-(2-(4-Fluorophenyl)-2-phenylethyl)-2-amino adenosine] | > 100 |  |
| CC1(C)O[C@@H]2[C@H](O1)[C@@H](CO)O[C@H]2n1cnc2c(NCC(c3ccccc3)c3ccccc3)ncnc21 [Example 29, 2',3'-O-Isopropylidene-N^6-(2,2-diphenylethyl) adenosine] | > 100 |  |
| OC[C@H]1O[C@@H](n2cnc3c(NCCC(c4ccccc4)c4ccccc4)ncnc32)[C@H](O)[C@@H]1O [Example 2, N^6-(3,3-Diphenylpropyl)adenosine] | > 100 | Inhibition of screen test failure (10 mg/kg i.p.): 0%; Inhibition of screen test failure (30 mg/kg i.p.): 0%; Inhibition of screen test failure (100 mg/kg i.p.): 0% |
| OC[C@H]1O[C@@H](n2cnc3c(NCC(c4ccccc4)c4cccc(Cl)c4)ncnc32)[C@H](O)[C@@H]1O (stereo partly drawn) [Example 14, N^6-(2-(3-Chlorophenyl)-2-phenylethyl)adenosine] | > 100 |  |
| OC[C@H]1O[C@@H](n2cnc3c(NCC(O)(c4ccccc4)c4ccccc4)ncnc32)[C@H](O)[C@@H]1O [Example 22, N^6-(2,2-Diphenyl-2-hydroxyethyl)adenosine] | 100 |  |
| OC[C@H]1O[C@@H](n2cnc3c(NCCCCC(c4ccccc4)c4ccccc4)ncnc32)[C@H](O)[C@@H]1O [Example 7, N^6-(5,5-Diphenylpentyl)adenosine] | > 100 |  |
| OC[C@H]1O[C@@H](n2cnc3c(NCC(c4ccc(Cl)cc4)c4ccc(Cl)cc4)ncnc32)[C@H](O)[C@@H]1O [Example 17, N^6-(2,2-Di(4-chlorophenyl)ethyl)adenosine] | > 100 |  |
| OC[C@H]1O[C@@H](n2cnc3c(NCC(c4ccc(F)cc4)c4ccc(F)cc4)ncnc32)[C@H](O)[C@@H]1O [Example 13, N^6-(2,2-Di-(4-fluorophenyl)ethyl)adenosine] | > 100 |  |
| COC(=O)C(CNc1ncnc2c1ncn2[C@@H]1O[C@H](CO)[C@@H](O)[C@H]1O)(c1ccccc1)c1ccccc1 [Example 24, N^6-(2-Carbomethoxy-2,2-diphenylethyl)adenosine] | > 30 |  |
| O=P(O)(O)OC[C@H]1O[C@@H](n2cnc3c(NCC(c4ccccc4)c4ccccc4)ncnc32)[C@H](O)[C@@H]1O [Example 28, N^6-(2,2-Diphenylethyl)adenosine-5'-phosphate] | > 30 |  |
| OC[C@H]1O[C@@H](n2cnc3c(NCCCC(c4ccccc4)c4ccccc4)ncnc32)[C@H](O)[C@@H]1O [Example 6, N^6-(4,4-Diphenylbutyl)adenosine] | > 100 |  |
| OC[C@H]1O[C@@H](n2cnc3c(NCC(c4ccccc4)c4ccc(F)cc4)nc(Cl)nc32)[C@H](O)[C@@H]1O (stereo partly drawn) [Example 11, N^6-(2-(4-Fluorophenyl)-2-phenylethyl)-2-chloroadenosine] | > 100 |  |
| O=C(OC[C@H]1O[C@@H](n2cnc3c(NCC(c4ccccc4)c4ccccc4)ncnc32)[C@H](OC(=O)c2ccccc2)[C@@H]1OC(=O)c1ccccc1)c1ccccc1 [Example 26, 2',3',5'-Tri-O-benzoyl-N^6-(2,2-diphenylethyl) adenosine] | > 100 |  |
| Nc1nc(NCC(c2ccccc2)c2ccccc2)c2ncn([C@@H]3O[C@H](CO)[C@@H](O)[C@H]3O)c2n1 [Example 4, N^6-(2,2-Diphenylethyl)-2-aminoadenosine] | > 100 | Inhibition of screen test failure (10 mg/kg i.p.): 0%; Inhibition of screen test failure (30 mg/kg i.p.): 11%; Inhibition of screen test failure (100 mg/kg i.p.): 22% |
| OC[C@H]1O[C@@H](n2cnc3c(NC(c4ccccc4)c4ccccc4)ncnc32)[C@H](O)[C@@H]1O [Example 5, N^6 -Diphenylmethyladenosine] | > 100 |  |
| Nc1nc(NCC(c2ccc(Cl)cc2)c2ccc(Cl)cc2)c2ncn([C@@H]3O[C@H](CO)[C@@H](O)[C@H]3O)c2n1 [Example 18] | > 30 |  |
| OC[C@H]1O[C@@H](n2cnc3c(NCC(c4ccccc4)c4ccccc4)nc(Cl)nc32)[C@H](O)[C@@H]1O [Example 3, N^6-(2,2-Diphenylethyl)-2-chloroadenosine] | > 100 | Inhibition of screen test failure (10 mg/kg i.p.): 0%; Inhibition of screen test failure (30 mg/kg i.p.): 11%; Inhibition of screen test failure (100 mg/kg i.p.): 44% |
| Nc1nc(NCC(O)(c2ccccc2)c2ccccc2)c2ncn([C@@H]3O[C@H](CO)[C@@H](O)[C@H]3O)c2n1 [Example 23, N^6-(2,2-Diphenyl-2-hydroxyethyl)-2-aminoadenosine] | > 100 |  |
| COc1ccc(C(CNc2ncnc3c2ncn3[C@@H]2O[C@H](CO)[C@@H](O)[C@H]2O)c2ccccc2)cc1 (stereo partly drawn) [Example 19, N^6-(2-(4-Methoxyphenyl)-2-phenylethyl)adenosine] | 30 |  |
| Cc1cccc(C(CNc2ncnc3c2ncn3[C@@H]2O[C@H](CO)[C@@H](O)[C@H]2O)c2ccccc2)c1 (stereo partly drawn) [Example 9, N^6-(2-(3-Methylphenyl)-2-phenylethyl)adenosine] | 100 |  |
| CC(CNc1ncnc2c1ncn2[C@@H]1O[C@H](CO)[C@@H](O)[C@H]1O)(c1ccccc1)c1ccccc1 [Example 8, N^6-(2,2-Diphenylpropyl)adenosine] | > 100 |  |
| CC(=O)OC[C@H]1O[C@@H](n2cnc3c(NCC(c4ccccc4)c4ccccc4)ncnc32)[C@H](OC(C)=O)[C@@H]1OC(C)=O [Example 25, 2',3',5'-Tri-O-acetyl-N^6-(2,2-diphenylethyl)adenosine] | > 100 |  |
| OC[C@H]1O[C@@H](n2cnc3c(NCC(c4ccccc4)c4ccc(F)cc4)ncnc32)[C@H](O)[C@@H]1O (stereo partly drawn) [Example 10, N^6-(2-(4-Fluorophenyl)-2-phenylethyl)adenosine] | > 100 |  |
